One compound from paper doi:10.1101/2021.11.15.468710v2 (biorxiv, 2021) can be followed below.

pIC50: −log10 of the molar value.

The assay concerns the target intact V-ATPase (purified yeast V-ATPase) (Saccharomyces cerevisiae, UniProt P23968+P25515+P32563+P32842). The assay can be described thus: enzyme-coupled ATPase assay. It counts as biochemical.

For the compound `CO/C1=C\C(C)=C\[C@@H](C)[C@@H](O)[C@@H](C)C/C(C)=C/C=C/[C@H](OC)[C@@H]([C@@H](C)[C@@H](O)[C@H](C)[C@@]2(O)C[C@@H](O)[C@H](C)[C@@H](C(C)C)O2)OC1=O` [bafilomycin A1], the pIC50 was > 8.95.
